Reference: paper PMC6018403 (Frontiers in Pharmacology, 2018)
Where two headings read alike, the source gives them in different places.

Experiment: Multi-component pharmacokinetic study of GQD, GQD-GC and single herb extracts in rats (plasma, LC/MS/MS)
Assay type: in vivo, Sprague-Dawley rats
Settings: for AUC(0-t) / Cmax / half-life / Tmax: male, Sprague-Dawley, rat
Procedure: Male Sprague-Dawley rats (220–250 g) were used for PK study, and the details were described in Supplemental Data. All procedures were in accordance with the National Institutes of Health Guide for the Care and Use of Laboratory Animals.
For PK study of GQD and its component herbs, rats were randomly divided into six groups (n = 10 for each group) before oral administration.
All blood samples were immediately centrifuged at 6,000 rpm (4°C) for 20 min to obtain plasma. The plasma samples were stored at −80°C.
A Finnigan TSQ Quantum triple quadrupole mass spectrometer was connected to a Surveyor HPLC via ESI interface (ThermoFisher). High purity nitrogen was used as the sheath and auxiliary gas; Ultra-high purity argon was used as the collision gas (1.5 mTorr). Q1 and Q3 quadrupoles were set at unit resolution. […] The column temperature was 40°C. The mobile phase consisted of acetonitrile containing 2% (v/v) methanol (A) and water containing 0.1% (v/v) formic acid (B). […] An aliquot of 5 μL was injected for analysis. UV spectra were obtained by scanning from 200 to 400 nm. The mass spectrometer was operated in the (+)-ESI mode. The optimized parameters were as follows: sheath gas (N2), 50 arb; auxiliary gas (N2), 5 arb; spray voltage, 4.0 kV; capillary temperature, 330°C; collision energy, see Table S1. Analytes were detected in the selected reaction monitoring (SRM) mode. Data were processed by Xcalibur 2.0.7 software (ThermoFisher).
LC/MS/MS calibration and quantitation data were processed with Xcalibur 2.0.7 software (ThermoFisher). The maximal plasma concentrations (Cmax) and their time of occurrence (Tmax) were obtained directly from the measured data. Other pharmacokinetic parameters were calculated by non-compartment or compartment models using WinNonlin® software (v6.1, Pharsight). Unless otherwise stated, results were expressed as the mean ± SD. Statistical significance in differences of the means was determined by Student's t–test, with a significance level of P < 0.05.
Herbal materials and extracts.
The four component herbs, Puerariae Lobatae Radix (Ge-Gen, GG), Scutellariae Radix (Huang-Qin, HQ), Coptidis Rhizoma (Huang-Lian, HL), and Glycyrrhizae Radix et Rhizoma Praeparata cum Melle (Gan-Cao, GC) were purchased from Tianheng Pharmacy. GQD was prepared by decocting the four component herbs […]
pre-extraction of Ge-Gen using 200 mL of water for 0.5 h. The decoctions were combined, filtered, and concentrated in vacuum at 50 °C. GQD-GC was prepared using the same procedure, except that Gan-Cao was removed from the formula. Final concentration of the GQD-GC extract was equivalent to 1.0 g of the crude drugs per mL. For single herb extracts, the herbs were decocted in 8-fold volume of water for […]
Final concentrations of the extracts were 1.0 g/mL for Ge-Gen, and 0.5 g/mL for Huang-Qin, Huang-Lian and […]
For pharmacokinetic study, Male Sprague-Dawley rats (220-250 g) were obtained from the Laboratory Animal Center of Peking University Health Science Center. The […]
The rats had free access to tap water and soy-free custom diet (Ke’ao Xieli Co.). All procedures were in accordance with the National Institutes of Health Guide for the Care and Use of Laboratory Animals […]
Experimental details for the PK study
1. Preparation of internal standard solution, calibration standard solutions, and quality control solutions […]
internal standard solution. Reference standard compounds were dissolved in the internal standard solution to prepare individual stock solutions (1.0 mg/mL). These […]
each compound. The standard solution was then serially diluted to obtain calibration […]
Quality control stock solutions were prepared at three concentration levels as high QC (HQC), middle QC (MQC), and low QC (LQC), based on linear ranges of the analytes.
2.1. Sample preparation for pharmacokinetic study
The calibration standard and quality control solutions for pharmacokinetic study were […]

[1] = plasma, po, 18.9 g/kg, GQD group: rats, oral GQD extract 18.9 g/kg, plasma, read-out: AUClast
[2] = GQD group: rats, oral GQD extract 18.9 g/kg, plasma, read-out: Cmax
[3] = GQD group: rats, oral GQD extract 18.9 g/kg, plasma, read-out: T1/2 (converted)
[4] = GQD group: rats, oral GQD extract 18.9 g/kg, plasma, read-out: Tmax
[5] = plasma, po, 16.5 g/kg, GQD-GC group (GQD without Gan-Cao): rats, oral 16.5 g/kg, plasma, read-out: AUClast
[6] = plasma, po, 18.9 g/kg, GQD group: rats, oral GQD 18.9 g/kg (1.5-fold of clinical dosage), plasma, read-out: AUClast
[7] = GQD-GC group (GQD without Gan-Cao): rats, oral 16.5 g/kg, plasma, read-out: Cmax
[8] = GQD-GC group (GQD without Gan-Cao): rats, oral 16.5 g/kg, plasma, read-out: T1/2 (converted)
[9] = GQD-GC group (GQD without Gan-Cao): rats, oral 16.5 g/kg, plasma, read-out: Tmax

## COc1ccc(-c2coc3cc(O)ccc3c2=O)cc1 [Compound 32, formononetin]
plasma, po, 2.36 g/kg, GC (Gan-Cao) group: rats, oral extract 2.36 g/kg, plasma, read-out: AUClast
  AUC(0-t): 19.9 ± 7.99 ng·h/mL
[1]
  AUC(0-t): 94.2 ± 32.6 ng·h/mL
GC (Gan-Cao) group: rats, oral extract 2.36 g/kg, plasma, read-out: Cmax
  Cmax: 1.71 ± 1 ng/mL
GC (Gan-Cao) group: rats, oral extract 2.36 g/kg, plasma, read-out: T1/2 (converted)
  half-life: 3.22 ± 0.87 h
GC (Gan-Cao) group: rats, oral extract 2.36 g/kg, plasma, read-out: Tmax
  Tmax: 0.33 ± 0.13 h
[2]
  Cmax: 8.62 ± 0.39 ng/mL
[3]
  half-life: 23.8 ± 16.8 h
[4]
  Tmax: 2.92 ± 0.08 h
rats, oral
  plasma concentrations, effect of GQD compared with Gan-Cao: improved

## CC1(C(=O)O)CCC2(C)CCC3(C)C(=CC(=O)C4C5(C)CCC(OC6OC(C(=O)O)C(O)C(O)C6OC6OC(C(=O)O)C(O)C(O)C6O)C(C)(CO)C5CCC43C)C2C1 (centres unmarked) [Compound 35, licorice saponin G2]
In vivo, po, 2.36 g/kg
  Cmax: 8.98 ± 2.49 ng/mL
  Tmax: 3.7 ± 1.41 h
  half-life: 2.3 ± 6.79 h
In vivo, po, 2.36 g/kg, AUClast
  AUC(0-t): 81 ± 27.7 ng·h/mL
In vivo, po, 18.9 g/kg
  Cmax: 10.3 ± 6.38 ng/mL
  Tmax: 3.89 ± 1.41 h
  half-life: 2.53 ± 0.14 h
In vivo, po, 18.9 g/kg, AUClast
  AUC(0-t): 102 ± 53.3 ng·h/mL

## COc1cc(-c2coc3c(C4OC(COC5OCC(O)(CO)C5O)C(O)C(O)C4O)c(O)ccc3c2=O)ccc1O (centres unmarked) [Compound 37, 3'-methoxymirificin]
In vivo, po, 9.45 g/kg, GG (Ge-Gen) group: rats, oral extract 9.45 g/kg, plasma, read-out: AUClast
  AUC(0-t): 47.4 ± 28.7 ng·h/mL
In vivo, po, 16.5 g/kg, GQD-GC group (GQD without Gan-Cao): rats, oral 16.5 g/kg, plasma, read-out: AUClast
  AUC(0-t): 42.5 ± 11.3 ng·h/mL
In vivo, po, 18.9 g/kg, GQD group: rats, oral GQD extract 18.9 g/kg, plasma, read-out: AUClast
  AUC(0-t): 86.3 ± 23.9 ng·h/mL
In vivo, GG (Ge-Gen) group: rats, oral extract 9.45 g/kg, plasma, read-out: Cmax
  Cmax: 11.6 ± 0.56 ng/mL
In vivo, GG (Ge-Gen) group: rats, oral extract 9.45 g/kg, plasma, read-out: T1/2 (converted)
  half-life: 1.37 ± 0.19 h
In vivo, GG (Ge-Gen) group: rats, oral extract 9.45 g/kg, plasma, read-out: Tmax
  Tmax: 0.36 ± 0.74 h
In vivo, GQD group: rats, oral GQD extract 18.9 g/kg, plasma, read-out: Cmax
  Cmax: 9.94 ± 3.68 ng/mL
In vivo, GQD group: rats, oral GQD extract 18.9 g/kg, plasma, read-out: T1/2 (converted)
  half-life: 1.04 ± 0.04 h
In vivo, GQD group: rats, oral GQD extract 18.9 g/kg, plasma, read-out: Tmax
  Tmax: 0.36 ± 0.03 h
In vivo, GQD-GC group (GQD without Gan-Cao): rats, oral 16.5 g/kg, plasma, read-out: Cmax
  Cmax: 7.22 ± 3.27 ng/mL
In vivo, GQD-GC group (GQD without Gan-Cao): rats, oral 16.5 g/kg, plasma, read-out: T1/2 (converted)
  half-life: 1.62 ± 0.39 h
In vivo, GQD-GC group (GQD without Gan-Cao): rats, oral 16.5 g/kg, plasma, read-out: Tmax
  Tmax: 0.35 ± 0.42 h

## COc1c(O)c(O[C@@H]2O[C@H](C(=O)O)[C@@H](O)[C@H](O)[C@H]2O)cc2oc(-c3ccccc3)cc(=O)c12 [Compound 38, lateriflorein 7-O-glucuronide]
plasma, po, 3.54 g/kg, HQ (Huang-Qin) group: rats, oral extract 3.54 g/kg, plasma, read-out: AUClast
  AUC(0-t): 1170 ± 342 ng·h/mL
[5]
  AUC(0-t): 599 ± 215 ng·h/mL
[1]
  AUC(0-t): 700 ± 77 ng·h/mL
[6]
  AUC(0-t): > 700 ng·h/mL
[2]
  Cmax: 48.8 ± 3.88 ng/mL
[3]
  half-life: 4.33 ± 3.23 h
[4]
  Tmax: 0.44 ± 3.87 h
[7]
  Cmax: 59.4 ± 5.34 ng/mL
[8]
  half-life: 2.85 ± 0.54 h
[9]
  Tmax: 0.34 ± 0.07 h
HQ (Huang-Qin) group: rats, oral extract 3.54 g/kg, plasma, read-out: Cmax
  Cmax: 213 ± 34.3 ng/mL
HQ (Huang-Qin) group: rats, oral extract 3.54 g/kg, plasma, read-out: T1/2 (converted)
  half-life: 1.58 ± 0.14 h
HQ (Huang-Qin) group: rats, oral extract 3.54 g/kg, plasma, read-out: Tmax
  Tmax: 0.31 ± 0.03 h

## COc1ccc(-c2coc3cc(O[C@@H]4O[C@H](CO)[C@@H](O)[C@H](O)[C@H]4O)ccc3c2=O)cc1 [Compound 39, ononin]
plasma, po, 9.45 g/kg, GG (Ge-Gen) group: rats, oral extract 9.45 g/kg, plasma, read-out: AUClast
  AUC(0-t): 139 ± 52.4 ng·h/mL
[5]
  AUC(0-t): 187 ± 129 ng·h/mL
[1]
  AUC(0-t): 500 ± 233 ng·h/mL
[6]
  AUC(0-t): > 300 ng·h/mL
GG (Ge-Gen) group: rats, oral extract 9.45 g/kg, plasma, read-out: Cmax
  Cmax: 41.2 ± 11.4 ng/mL
GG (Ge-Gen) group: rats, oral extract 9.45 g/kg, plasma, read-out: T1/2 (converted)
  half-life: 1.21 ± 0.24 h
GG (Ge-Gen) group: rats, oral extract 9.45 g/kg, plasma, read-out: Tmax
  Tmax: 1.12 ± 0.29 h
[2]
  Cmax: 34.8 ± 34.2 ng/mL
[3]
  half-life: 5.73 ± 2.2 h
[4]
  Tmax: 0.86 ± 0.15 h
[7]
  Cmax: 24.1 ± 8.38 ng/mL
[8]
  half-life: 2.44 ± 1.45 h
[9]
  Tmax: 0.74 ± 0.29 h
rats, oral
  bioavailability in the GQD group compared with the Ge-Gen group: higher
